# How the values were obtained:
# ZenARe [1] = target: T1, ZenARe; test: X-ray crystal structure (cocrystallized with ZEN, […] Å); stopped-flow tryptophan fluorescence of product binding ([…] °C, KP,net); parameters: species or system Rhodococcus erythropolis
# T1 construct: gene zenA; C-terminal 6xHis-tag
# ZenAScfl H286Y = target: T2, ZenAScfl H286Y (Streptomyces coelicoflavus, UniProt A0A6N9UBA7, H286Y); test: X-ray crystal structure, cocrystallized with […] ZEN, […] Å; type: binding
# T2 construct: gene G3I46_00910; C-terminal 6xHis-tag
# ZenARe [2] = target: T1, ZenARe; test: stopped-flow tryptophan fluorescence ([…] °C, net dissociation constant of two-step binding); steady-state KM […]; parameters: species or system Rhodococcus erythropolis
# [3] = target: the molecule itself; test: SEC-MALS; size exclusion chromatography and multiangle light scattering of the 6xHis-tagged enzyme; conditions in the Supporting Information
# T2 sequence (A0A6N9UBA7 entry or part of it H286Y): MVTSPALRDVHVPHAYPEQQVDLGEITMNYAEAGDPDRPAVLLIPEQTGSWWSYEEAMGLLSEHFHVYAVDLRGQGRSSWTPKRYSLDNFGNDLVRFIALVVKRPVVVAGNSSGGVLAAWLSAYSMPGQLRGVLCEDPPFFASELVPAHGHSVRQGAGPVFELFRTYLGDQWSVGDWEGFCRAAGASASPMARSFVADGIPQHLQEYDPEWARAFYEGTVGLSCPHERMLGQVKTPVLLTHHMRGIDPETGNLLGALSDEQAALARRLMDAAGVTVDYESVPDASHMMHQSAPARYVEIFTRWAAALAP
molecule,measurement,setting,value
"C[C@H](O)CCCC(=O)CCC/C=C/c1cc(O)cc(O)c1C(=O)O [HZEN, (S,E)-2,4-dihydroxy-6-(10-hydroxy-6-oxoundec-1-en-1-yl)benzoic acid]",Kd,ZenARe [1],10 ± 1 µM
same,"X-ray crystal structure, cocrystallized with 5 mM ZEN, 1.53 Å",ZenAScfl H286Y,a subsequently calculated Polder map revealed a better fit of product HZEN in the active site
"C[C@H]1CCCC(=O)CCC/C=C/c2cc(O)cc(O)c2C(=O)O1 [ZEN, (S,E)-14,16-dihydroxy-3-methyl-3,4,5,6,9,10-hexahydro-1H-benzo[c][1]oxacyclotetradecine-1,7(8H)-dione]",Kd,ZenARe [2],0.21 ± 0.04 µM
ZEN lactonase ZenA_(Scfl) of Streptomyces coelicoflavus (enzyme) MVTSPALRDVHVPHAYPEQQVDLGEITMNYAEAGDPDRPAVLLIPEQTGSWWSYEEAMGLLSEHFHVYAVDLRGQGRSSWTPKRYSLDNFGNDLVRFIALVVKRPVVVAGNSSGGVLAAWLSAYSMPGQLRGVLCEDPPFFASELVPAHGHSVRQGAGPVFELFRTYLGDQWSVGDWEGFCRAAGASASPMARSFVADGIPQHLQEYDPEWARVFYEGTVGLSCPHERMLGQVKTPVLLTHHMRGIDPETGNLLGALSDEQALRARRLMDSAGVTVDYESVPDASHMMHQSAPARYVEIFTRWAAALAP,stoichiometry N,[3],4
ZEN lactonase ZenARe of Rhodococcus erythropolis PFA D8-1 (enzyme) MAEEGTRSEAADAATQARQLPDSRNIFVSHRFPERQVDLGEVVMNFAEAGSPDNPALLLLPEQTGSWWSYEPVMGLLAENFHVFAVDIRGQGRSTWTPRRYSLDNFGNDLVRFIALVIKRPVVVAGNSSGGLLAAWLSAYAMPGQIRAALCEDAPFFASELVPAYGHSVLQAAGPAFELYRDFLGDQWSIGDWKGFVEAAKASPAKAMQLFPTPDEAPQNLKEYDPEWGRAFFEGTVALHCPHDRMLSQVKTPILITHHARTIDPETGELLGALSDLQAEHAQDIIRSAGVRVDYQSHPDALHMMHLFDPARYAEILTSWSATLPAND,stoichiometry N,[3],2

# Reference: publication PMC10913051, “Bacterial Lactonases ZenA with Noncanonical Structural Features Hydrolyze the Mycotoxin Zearalenone” (ACS Catalysis, 2024)
